Target: Lysine--tRNA ligase (Plasmodium falciparum (isolate 3D7), UniProt Q8IDJ8)
Experiment: Pf-KRS-1 (Lysyl-RNA Synthetase-1, KRS-1, cytosolic KRS) from Plasmodium falciparum. Inhibitor assay, 384 well plate, luminescence read.
Assay type: functional

Chain of Lysine--tRNA ligase (Q8IDJ8 whole entry): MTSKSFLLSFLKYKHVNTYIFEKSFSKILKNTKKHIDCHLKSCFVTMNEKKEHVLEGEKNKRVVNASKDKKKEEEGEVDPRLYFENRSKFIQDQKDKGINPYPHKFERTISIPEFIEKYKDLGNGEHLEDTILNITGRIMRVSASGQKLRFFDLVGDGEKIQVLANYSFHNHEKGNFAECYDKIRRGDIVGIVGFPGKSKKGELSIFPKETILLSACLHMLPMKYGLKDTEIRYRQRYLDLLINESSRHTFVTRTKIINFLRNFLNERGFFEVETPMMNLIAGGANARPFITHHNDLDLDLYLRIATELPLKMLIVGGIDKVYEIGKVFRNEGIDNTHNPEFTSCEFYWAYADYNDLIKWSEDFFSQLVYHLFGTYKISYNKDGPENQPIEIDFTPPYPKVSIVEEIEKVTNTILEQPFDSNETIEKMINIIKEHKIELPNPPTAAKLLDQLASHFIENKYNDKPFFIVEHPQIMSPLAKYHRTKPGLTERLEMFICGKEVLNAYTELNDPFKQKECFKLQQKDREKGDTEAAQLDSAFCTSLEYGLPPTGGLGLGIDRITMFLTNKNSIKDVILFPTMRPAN

Structure (SMILES) | IC50 [µM]
c1ncc2c(n1)CN(CC1CCCCO1)CC2 (stereo not given) | 32.7
O=C1CC(c2ccc(C(=O)O)cc2)c2ncn(-c3cccc(F)c3)c2N1 (stereo not given) | > 50.1
O=c1[nH]c2c(c(=O)n1C1CCCCC1)CCC2NCCc1ccccc1 (stereo not given) | 1.75
O=c1[nH]c2c(c(=O)n1C1CCCCC1)CCC2Nc1ccccc1 (stereo not given) | > 50.1
O=C([C@H]1CCCO1)N1CCc2ncnc(NC3CC3)c2CC1 | > 50.1
Cc1ccc(N2CC[C@H](OCC3CC3)[C@@H]2Cc2cnn(C)c2)nn1 | > 50.1
CNc1ncc2c(n1)CN(C1CCCC1)C2=O | > 50.1
CC1CCC(N2Cc3nc(N)ncc3C2=O)CC1 (stereo not given) | > 50.1
CC(C)CN1Cc2nc(N)ncc2C1=O | 35.6
CSc1ncnc(NCc2cccs2)c1C#N | > 50.1
Cc1sc(Oc2ccccc2Cl)nc1C(=O)O | > 50.1
O=C(Cc1ccsc1)N1CCCC(c2n[nH]c3ncccc23)C1 (stereo not given) | > 50.1
Cn1c(CN2CCCc3cc(F)cc(F)c32)cc(=O)n(C)c1=O | > 50.1
Cc1ncc2c(n1)CN(CC1CCCCO1)CC2 (stereo not given) | 35.9
CC1(C)CCN1C(=O)c1cc(F)cc2[nH]cnc12 | > 50.1
CC(O)(CNc1ccc(Cl)c(C#N)n1)c1ccsc1 (stereo not given) | 44
Cn1cc(C(C)(O)CNc2ccc(Cl)c(C#N)n2)cn1 (stereo not given) | > 50.1
Cc1cc(NC(=O)CCCn2ccnc2C)nc(C(C)C)n1 | > 50.1
COc1cc(NC(=O)N(C)Cc2ccc(Br)o2)ncn1 | > 50.1
Cc1ccc(O)c(CNCC(C)c2nc3ccccc3o2)n1 (stereo not given) | > 50.1

Structure (SMILES) | IC50 [µM]
Cc1nnc(NCCC(=O)NCc2ccccc2)c(C#N)c1C | > 50.1
Cc1nnc(NCCC(=O)N(C)Cc2ccccc2)c(C#N)c1C | > 50.1
O=C(C[S+]([O-])Cc1c(Cl)cccc1Cl)N1CCc2sccc2C1 (stereo not given) | > 50.1
O=C(c1nc(=O)[nH][nH]1)N1CCC2(CCCCC2)C1 | > 50.1
FC(F)(F)COCCN1CCc2cncnc2C1 | > 50.1
CC(Nc1ccn(Cc2ccccn2)n1)C(=O)NC(C)(C)C (stereo not given) | > 50.1
COCc1cc(N(CC(F)F)C2CC2)n2ncnc2n1 | > 50.1
O=C1COc2cc(C(=O)NCc3ccc(Cl)s3)ccc2N1 | 17.5
c1cnn(C2CN(c3ncnc4[nH]ccc34)C2)c1 | > 50.1
Cc1cc(C)n(C2CN(c3ncnc4[nH]ccc34)C2)n1 | > 50.1
O=C(NCc1ccc(Cl)s1)c1ccc(N2CCOC2=O)cc1 | > 50.1
CCN(Cc1cccc(F)c1)c1ccc2nnnn2n1 | > 50.1
C=C(C)Cn1ccc2cc(OC)c(F)cc2c1=O | > 50.1
Cn1cc(NC(=O)c2ccccn2)cc(Br)c1=O | > 50.1
O=C(COCc1ccccc1Cl)N1CCN(c2cnccn2)CC1 | > 50.1
CCCC(=O)N1CCCCC1C(=O)Nc1ccc(-c2nnc[nH]2)cc1 (stereo not given) | > 50.1
CC(C)CN1C(=O)C2(CCCC2)NC1c1cn(C)c(=O)n(C)c1=O (stereo not given) | > 50.1
Cc1cc(C(N)=O)ccc1NC(=O)c1nc(N2CCCC2)ncc1Cl | > 50.1
NS(=O)(=O)c1ccc(NC(=O)CSc2ccc3c(c2)CCC3)cc1 | > 50.1
CSc1cc2c(cc1NC(=O)NCC(C)(C)C(N)=O)OCCO2 | > 50.1

Structure (SMILES) | IC50 [µM]
CO[C@H]1CC[C@H]2[C@H]1OCCN2C(=O)CC1=CCCCC1 | > 50.1
CC(=O)c1cnc(N(C)Cc2cc(C)cc(C)n2)nc1C | > 50.1
Cc1nc(C)c(C)c(N(C)CCCc2nccn2C)n1 | > 50.1
Cc1nc(N(C)C)ncc1C(=O)NCCc1csc(-c2cnccn2)n1 | > 50.1
CN1C[C@@H]2CC[C@H](CC1=O)N2C(=O)c1ccc(-c2ccccc2)[nH]c1=O | > 50.1
COC(=O)c1ccc2ccn(CC3COCCO3)c(=O)c2c1 (stereo not given) | > 50.1
COc1ccccc1N1CCC(N2CCOCC(CO)C2)CC1 (stereo not given) | > 50.1
Cc1ccc([C@@H]2CN(C(=O)c3cc(C)no3)C[C@H]2NC(=O)C2CC2)cc1 | > 50.1
c1ccc(SCCN2CCCC(Cn3ccnc3)C2)cc1 (stereo not given) | > 50.1
CCCc1ccc(CN2CCN(C(=O)CC(C)C)[C@@H]3CS(=O)(=O)C[C@@H]32)o1 | > 50.1
Cc1nc(CN2CCCC(CCc3ccccc3C(F)(F)F)C2)co1 (stereo not given) | > 50.1
Cc1nc(N(C)C)ncc1C(=O)NCCc1csc(-c2ccncc2)n1 | > 50.1
O=C(NCC1(O)CCCCC1)c1coc(COc2cccc(F)c2)n1 | > 50.1
Cc1nnc(NCCn2nc(C)c(Cl)c2C)o1 | > 50.1
O=C1COc2ccccc2N1CCCn1cnnn1 | > 50.1
CC(C)SCCn1ccc2[nH]c(=O)c(C#N)cc2c1=O | > 50.1
Cc1nc[nH]c1CN1CCn2nc(CN3Cc4ccccc4C3)cc2C1 | > 50.1
COc1ccc(/C=C/CN2C[C@H]3CC[C@@H]2CN(S(=O)(=O)N(C)C)C3)cc1 | > 50.1
Cc1cc2ccccc2n1CCC(=O)N1CCCCC1CCO (stereo not given) | > 50.1
O=C(CC1COCCN1)N1CCC(N2CCc3ccccc3C2)CC1 (stereo not given) | > 50.1
